What was measured:
[1] = tested on: cardiac infarct size of rat; experiment: Influence on the cardiac infarct size of rat (ligation of the coronary artery); type: in vivo; conditions: 1 mg/kg through the tail vein 15 minutes prior to ligation; 3 hours of ligation
Protocol: B. Influence on the cardiac infarct size of rat
Sixty-one male rats (weight : 220 to 300 g) were made to get myocardial ischemia by the ligation of the coronary artery. After 3 hours from the ligation, hearts were taken out of the rats and cut into round slices to obtain preparations. These preparations were stained with […]. The area unstained therewith was regarded as a cardiac infarction nidus and the area ratio of the nidus to the left ventricle was determined by the image analysis and regarded as the cardiac infarct size.
The cardiac infarct size was reduced as compared with that of the control rat by 21% or 20% by the administration of the compound of Example 4 or 6 through the tail vein in a dose of 1 mg/kg before 15 minutes prior to the ligation of the coronary artery.

[2] = tested on: phospholipase A2 (PLA2) contained in the membrane fraction of rabbit heart; experiment: Inhibitory activity against phospholipase A2 (PLA2) contained in the membrane fraction of rabbit heart; type: biochemical; conditions: CaCl2 added, 37° C., 30 minutes
Protocol: (§1) A. Inhibitory activity against phospholipase A2 (PLA2) contained in the membrane fraction of rabbit heart or the supernatant fraction thereof (method) An NZW male rabbit was anesthetized by the intravenous administration of pentobarbital sodium to take out its heart. This heart was washed with ice cooled physiological saline to recover a ventricle, followed by the addition of ice-cooled 0.25M sucrose/20 mM tris hydrochloride buffer (pH: 8.0) in an amount of 5 ml per g of the ventricle. The obtained mixture was mashed with a homogenizer in ice water for 30 minutes and centrifuged at 1,000 g for 10 min. The supernatant was further centrifuged at 105,000 g for 60 min. The centrifugation was conducted at 0° to 4° C. The obtained supernatant was used as such as the supernatant fraction for examination. The precipitate was suspended in the same buffer as that described above and used as the membrane fraction for examination. The protein concentrations of these fractions were each adjusted to 5 mg/ml as determined by Lowry method. […] The test tubes of the membrane fraction were kept at 37° C. for 30 minutes for incubation, while those of the supernatant fraction were kept at 37° C. for 5 minutes for incubation. Each incubation was stopped by the addition of 1 ml of Dole reagent. […] The amount of ^14 C was determined with a liquid scintillation counter. Mepacrine was selected as a comparative compound. (Results)

male SD rats = experiment: Toxicity test, intravenous; type: in vivo; conditions: 50 mg/kg intravenously, three male SD rats per group, observed for 3 hours
Protocol: A small amount of 1N HCl was added to each of the compounds of Examples 4, 6, 7, 8 and 15 to form aqueous solutions. These solutions were each intravenously administered to the groups of three male SD rats of 7 weeks of age in a dose of 50 mg/kg. […] No rat died.

[3] = tested on: phospholipase A2 (PLA2) contained in the supernatant fraction of rabbit heart; experiment: Inhibitory activity against phospholipase A2 (PLA2) contained in the supernatant fraction of rabbit heart; type: biochemical; conditions: EGTA added, 37° C., 5 minutes
Protocol: as §1

| SMILES | reduction of cardiac infarct size as compared with control rat [1] [%] | PLA2 -inhibitory activity IC30, membrane fraction [2] [µM] | mortality (male SD rats) | PLA2 -inhibitory activity IC30, supernatant fraction [3] [µM] |
| --- | --- | --- | --- | --- |
| Cc1cccc(CCN(C)S(=O)(=O)c2ccc(N(C)C(=O)/C=C/c3ccc(S(C)(=O)=O)cc3)cc2)n1 [Example 6, N-methyl N-[2-(6-methyl-2-pyridyl)ethyl]-4-{N-methyl-N-[(E)-3-(4-methylsulfonylphenyl)-2-propenoyl]amino}benzenesulfonamide] | 20 | 0.056 | No rat died | > 100 |
| Cc1cccc(CCNS(=O)(=O)c2ccc(N(C)C(=O)/C=C/c3ccc(S(C)(=O)=O)cc3)cc2)n1 [Example 15, N-[2-(6-methyl-2-pyridyl)ethyl]-4-{N-methyl-N-[(E)-3-(4-methylsulfonylphenyl)-2-propenoyl]amino}benzenesulfonamide] | – | 0.081 | No rat died | 61 |
| CN(C(=O)/C=C/c1ccc(S(C)(=O)=O)cc1)c1ccc(S(=O)(=O)N2CCCN(CCc3ccccc3)CC2)cc1 [Example 7, (E)-N-methyl-N-{4-[4-(2 phenylethyl)-homopiperazinyl]sulfonylphenyl}-3-(4-methylsulfonylphenyl)-2-propenamide] | – | – | No rat died | – |
| CN(C(=O)/C=C/c1ccc(S(C)(=O)=O)cc1)c1ccc(S(=O)(=O)NC2CCCCN(Cc3ccccn3)C2)cc1 (racemic) [Example 8, (±)N-[1-(2-pyridylmethyl)-3-hexamethyleneimino]-4 {N methyl-N-[(E)-3-(4-methylsulfonylphenyl)-2-propenoyl]amino}benzenesulfonamide] | – | 0.029 | No rat died | > 100 |
| CN(C(=O)/C=C/c1ccc(C#N)cc1)c1ccc(S(=O)(=O)NC2CCCCCC2)cc1 [Example 25, N-cycloheptyl-4-{N-methyl-N-[(E)-3-(4-cyanophenyl)-2-propenoyl]amino}benzenesulfonamide] | – | 0.16 | – | 68 |
| CN(C(=O)/C=C/c1ccc(O)cc1)c1ccc(S(=O)(=O)NC2Cc3ccccc3C2)cc1 [Example 41, N-(2-indanyl)-4-{N-methyl-N-[(E)-3-(4-dihydroxyphenyl)-2-propenoyl]amino}benzenesulfonamide] | – | 0.98 | – | 46 |
| CN(C(=O)/C=C/c1ccc(O)c(O)c1)c1ccc(S(=O)(=O)NC2Cc3ccccc3C2)cc1 [Example 2, N-(2-indanyl)-4-{N-methyl-N-[(E)-3-(3,4-dihydroxyphenyl)-2-propenoyl]amino}benzenesulfonamide] | – | 4.48 | – | 40 |
| CN(C(=O)/C=C/c1ccc([N+](=O)[O-])cc1)c1ccc(S(=O)(=O)NC2CCCCCC2)cc1 [Example 38, N-cycloheptyl-4-{N-methyl-N-[(E)-3-(4-nitrophenyl)-2-propenoyl]amino}benzenesulfonamide] | – | 0.12 | – | 29 |
| CCN(CC)CCCC(C)Nc1c2ccc(Cl)cc2nc2ccc(OC)cc12 (centres unmarked) [mepacrine, reference compound] | – | > 100 | – | > 100 |
| CN(C(=O)/C=C/c1ccc(O)cc1)c1ccc(S(=O)(=O)NC2CCCCCC2)cc1 [Example 86, N-cycloheptyl-4-{N-methyl-N-[(E)-3-(4-hydroxyphenyl)-2-propenoyl]amino}benzenesulfonamide] | – | 0.62 | – | 46 |
| CN(C(=O)/C=C/c1ccc(S(C)(=O)=O)cc1)c1ccc(S(=O)(=O)NC2CCN(Cc3ccccc3)CC2)cc1 [Example 4, N-(1-benzyl-4-piperidyl)-4-(N-methyl [(E)-3-(4-methylsulfonylphenyl)-2-propenoyl]amino}benzenesulfonamide] | 21 | 0.032 | No rat died | > 100 |
| CN(C(=O)/C=C/c1ccc(O)c(O)c1)c1ccc(S(=O)(=O)NC2CCCCCC2)cc1 [Example 49, N-cycloheptyl-4-{N-methyl-N-[(E)-3-(3,4-dihydroxyphenyl)-2-propenoyl]amino}benzenesulfonamide] | – | 1.8 | – | 56 |
| CN(C(=O)/C=C/C=C/c1ccc(O)c(O)c1)c1ccc(S(=O)(=O)NC2CCc3ccccc3C2)cc1 (centres unmarked) [Example 48] | – | 1.7 | – | 32 |
| CN(C(=O)/C=C/c1ccc(O)c(F)c1)c1ccc(S(=O)(=O)NC2CCCCCC2)cc1 [Example 43] | – | 3.49 | – | 62 |
| CN(C(=O)/C=C/c1ccc(O)c(O)c1)c1ccc(S(=O)(=O)NC2CCCCC2)cc1 [Example 58, N-cyclohexyl-4-{N-methyl-N-[(E)-3-(3,4-dihydroxyphenyl)-2-propenoyl]amino}benzenesulfonamide] | – | 1.5 | – | 64 |
